Data reported in ChEMBL document CHEMBL2311326, “Synthesis and evaluation of novel sulfenamides as novel anti Methicillin-resistant Staphylococcus aureus agents” (2013).
In brackets after ≈: the same amount, converted by molar mass.

How the values were obtained:
Format in all cases: functional
Pseudomonas aeruginosa = assay: Antimicrobial activity against Pseudomonas aeruginosa PAO1
Staphylococcus aureus [1] = assay: Antimicrobial activity against methicillin-resistant Staphylococcus aureus
Bacillus subtilis = assay: Antimicrobial activity against Bacillus subtilis ATCC 6633
Staphylococcus aureus [2] = assay: Antimicrobial activity against methicillin-sensitive Staphylococcus aureus isolate 309-1
Staphylococcus aureus [3] = assay: Antimicrobial activity against Staphylococcus aureus ATCC 6538
Staphylococcus aureus [4] = assay: Antimicrobial activity against methicillin-resistant Staphylococcus aureus isolate 309-8
Staphylococcus aureus [5] = assay: Antimicrobial activity against methicillin-resistant Staphylococcus aureus isolate 309-7
Staphylococcus aureus [6] = assay: Antimicrobial activity against methicillin-resistant Staphylococcus aureus isolate 6-42
Staphylococcus aureus [7] = assay: Antimicrobial activity against methicillin-resistant Staphylococcus aureus isolate 309-4
Staphylococcus aureus [8] = assay: Antimicrobial activity against methicillin-resistant Staphylococcus aureus isolate Chaoyang

Structure (SMILES) | MIC (Pseudomonas aeruginosa) [µg/mL] | MIC (Staphylococcus aureus [1]) [µg/mL] | MIC (Bacillus subtilis) [µg/mL] | MBC (Staphylococcus aureus [2]) [µg/mL] | MIC (Staphylococcus aureus [2]) [µg/mL] | MBC (Staphylococcus aureus [3]) [µg/mL] | MIC (Staphylococcus aureus [3]) [µg/mL] | MBC (Staphylococcus aureus [4]) [µg/mL] | MIC (Staphylococcus aureus [4]) [µg/mL] | MBC (Staphylococcus aureus [5]) [µg/mL] | MIC (Staphylococcus aureus [5]) [µg/mL] | MBC (Staphylococcus aureus [6]) [µg/mL] | MIC (Staphylococcus aureus [6]) [µg/mL] | MBC (Staphylococcus aureus [7]) [µg/mL] | MIC (Staphylococcus aureus [7]) [µg/mL] | MBC (Staphylococcus aureus [8]) [µg/mL] | MIC (Staphylococcus aureus [8]) [µg/mL]
COC(=O)[C@H](Cc1c[nH]c2ccccc12)NSc1ccc([N+](=O)[O-])cc1 | > 100 | > 100 | 25 (≈ 67.3 µM) | – | – | – | – | – | – | – | – | – | – | – | – | – | –
COC(=O)[C@H](Cc1c[nH]c2ccccc12)NSc1ccccc1 | > 100 | 50 (≈ 153 µM) | 25 (≈ 76.6 µM) | – | – | – | – | – | – | – | – | – | – | – | – | – | –
COC(=O)c1ccccc1SN1C(=O)C(=O)c2ccccc21 | > 100 | 50 (≈ 160 µM) | > 100 | – | – | – | – | – | – | – | – | – | – | – | – | – | –
CCOC(=O)[C@H](Cc1c[nH]c2ccccc12)NSc1ccccc1[N+](=O)[O-] | > 100 | 1.56 (≈ 4.05 µM) | 6.25 (≈ 16.2 µM) | > 100 | 12.5 (≈ 32.4 µM) | > 100 | 6.25 (≈ 16.2 µM) | > 100 | 6.25 (≈ 16.2 µM) | > 100 | 6.25 (≈ 16.2 µM) | > 100 | 1.56 (≈ 4.05 µM) | > 100 | 12.5 (≈ 32.4 µM) | > 100 | 1.56 (≈ 4.05 µM)
CN[C@H](CC(C)C)C(=O)N[C@H]1C(=O)N[C@@H](CC(N)=O)C(=O)N[C@H]2C(=O)N[C@H]3C(=O)N[C@H](C(=O)N[C@H](C(=O)O)c4cc(O)cc(O)c4-c4cc3ccc4O)[C@H](O)c3ccc(c(Cl)c3)Oc3cc2cc(c3O[C@@H]2O[C@H](CO)[C@@H](O)[C@H](O)[C@H]2O[C@H]2C[C@](C)(N)[C@H](O)[C@H](C)O2)Oc2ccc(cc2Cl)[C@H]1O [VANCOMYCIN] | > 100 | – | 0.5 (≈ 0.345 µM) | 1 (≈ 0.69 µM) | – | 2 (≈ 1.38 µM) | – | 1 (≈ 0.69 µM) | – | 1 (≈ 0.69 µM) | – | 1 (≈ 0.69 µM) | – | 1 (≈ 0.69 µM) | – | 1 (≈ 0.69 µM) | –
COC(=O)CC[C@H](N)C(=O)OC | – | – | – | > 100 | > 100 | > 100 | > 100 | > 100 | > 100 | > 100 | > 100 | > 100 | > 100 | > 100 | > 100 | > 100 | > 100
O=C1C(=O)N(Sc2ccccc2[N+](=O)[O-])c2ccccc21 | > 100 | 25 (≈ 83.3 µM) | > 100 | – | – | – | – | – | – | – | – | – | – | – | – | – | –
Cc1ccc(SN2C(=O)C(=O)c3ccccc32)cc1 | > 100 | > 100 | > 100 | – | – | – | – | – | – | – | – | – | – | – | – | – | –
COC(=O)[C@H](Cc1c[nH]c2ccccc12)NSc1ccc([N+](=O)[O-])cc1[N+](=O)[O-] | > 100 | > 100 | 25 (≈ 60 µM) | – | – | – | – | – | – | – | – | – | – | – | – | – | –
CCOC(=O)c1ccccc1SN1C(=O)C(=O)c2ccccc21 | > 100 | 12.5 (≈ 38.2 µM) | > 100 | – | – | – | – | – | – | – | – | – | – | – | – | – | –
O=[N+]([O-])c1ccc(S)cc1 | – | – | – | > 100 | 1.56 (≈ 10.1 µM) | > 100 | 3.13 (≈ 20.2 µM) | > 100 | 1.56 (≈ 10.1 µM) | > 100 | 1.56 (≈ 10.1 µM) | > 100 | 1.56 (≈ 10.1 µM) | > 100 | 1.56 (≈ 10.1 µM) | > 100 | 1.56 (≈ 10.1 µM)
CCOC(=O)[C@H](Cc1c[nH]c2ccccc12)NSc1ccccc1 | > 100 | 25 (≈ 73.4 µM) | 25 (≈ 73.4 µM) | – | – | – | – | – | – | – | – | – | – | – | – | – | –
CCOC(=O)CC[C@H](NSc1ccc([N+](=O)[O-])cc1[N+](=O)[O-])C(=O)OCC | > 100 | > 100 | 50 (≈ 125 µM) | – | – | – | – | – | – | – | – | – | – | – | – | – | –
O=C1C(=O)N(Sc2ccc([N+](=O)[O-])cc2[N+](=O)[O-])c2ccccc21 | > 100 | > 100 | > 100 | – | – | – | – | – | – | – | – | – | – | – | – | – | –
CCOC(=O)[C@H](Cc1c[nH]c2ccccc12)NSc1ccc(C)cc1 | > 100 | > 100 | 25 (≈ 70.5 µM) | – | – | – | – | – | – | – | – | – | – | – | – | – | –
COC(=O)CC[C@H](NSc1ccc([N+](=O)[O-])cc1[N+](=O)[O-])C(=O)OC | > 100 | > 100 | 50 (≈ 134 µM) | – | – | – | – | – | – | – | – | – | – | – | – | – | –
COC(=O)CC[C@H](NSc1ccc([N+](=O)[O-])cc1)C(=O)OC | > 100 | 1.56 (≈ 4.75 µM) | 3.13 (≈ 9.53 µM) | > 100 | 6.25 (≈ 19 µM) | > 100 | 6.25 (≈ 19 µM) | > 100 | 3.13 (≈ 9.53 µM) | > 100 | 3.13 (≈ 9.53 µM) | > 100 | 1.56 (≈ 4.75 µM) | > 100 | 6.25 (≈ 19 µM) | > 100 | 1.56 (≈ 4.75 µM)

Structure (SMILES) | MIC (Pseudomonas aeruginosa) [µg/mL] | MIC (Staphylococcus aureus [1]) [µg/mL] | MIC (Bacillus subtilis) [µg/mL] | MBC (Staphylococcus aureus [2]) [µg/mL] | MIC (Staphylococcus aureus [2]) [µg/mL] | MBC (Staphylococcus aureus [3]) [µg/mL] | MIC (Staphylococcus aureus [3]) [µg/mL] | MBC (Staphylococcus aureus [4]) [µg/mL] | MIC (Staphylococcus aureus [4]) [µg/mL] | MBC (Staphylococcus aureus [5]) [µg/mL] | MIC (Staphylococcus aureus [5]) [µg/mL] | MBC (Staphylococcus aureus [6]) [µg/mL] | MIC (Staphylococcus aureus [6]) [µg/mL] | MBC (Staphylococcus aureus [7]) [µg/mL] | MIC (Staphylococcus aureus [7]) [µg/mL] | MBC (Staphylococcus aureus [8]) [µg/mL] | MIC (Staphylococcus aureus [8]) [µg/mL]
CCOC(=O)c1ccccc1SN1C(=O)C(=O)c2cccc(Br)c21 | > 100 | > 100 | > 100 | – | – | – | – | – | – | – | – | – | – | – | – | – | –
COC(=O)CC[C@H](NSc1ccccc1[N+](=O)[O-])C(=O)OC | > 100 | 12.5 (≈ 38.1 µM) | 25 (≈ 76.1 µM) | – | – | – | – | – | – | – | – | – | – | – | – | – | –
O=C1C(=O)N(Sc2ccccc2[N+](=O)[O-])c2c(Br)cccc21 | > 100 | 12.5 (≈ 33 µM) | > 100 | – | – | – | – | – | – | – | – | – | – | – | – | – | –
COC(=O)[C@H](Cc1c[nH]c2ccccc12)NSc1ccccc1[N+](=O)[O-] | > 100 | 3.13 (≈ 8.43 µM) | 12.5 (≈ 33.7 µM) | > 100 | 25 (≈ 67.3 µM) | > 100 | 6.25 (≈ 16.8 µM) | > 100 | 25 (≈ 67.3 µM) | > 100 | 12.5 (≈ 33.7 µM) | > 100 | 3.13 (≈ 8.43 µM) | > 100 | 25 (≈ 67.3 µM) | > 100 | 3.13 (≈ 8.43 µM)
CC(C)OC(=O)[C@H](Cc1c[nH]c2ccccc12)NSc1ccccc1[N+](=O)[O-] | > 100 | 3.13 (≈ 7.84 µM) | 12.5 (≈ 31.3 µM) | > 100 | 25 (≈ 62.6 µM) | > 100 | 6.25 (≈ 15.6 µM) | > 100 | 6.25 (≈ 15.6 µM) | > 100 | 6.25 (≈ 15.6 µM) | > 100 | 3.13 (≈ 7.84 µM) | > 100 | 25 (≈ 62.6 µM) | > 100 | 3.13 (≈ 7.84 µM)
CCOC(=O)c1ccccc1SN1C(=O)C(=O)c2cccc(Cl)c21 | > 100 | > 100 | > 100 | – | – | – | – | – | – | – | – | – | – | – | – | – | –
CCOC(=O)[C@@H](N)Cc1c[nH]c2ccccc12 | – | – | – | > 100 | > 100 | > 100 | > 100 | > 100 | > 100 | > 100 | > 100 | > 100 | > 100 | > 100 | > 100 | > 100 | > 100
O=C1C(=O)N(Sc2ccccc2[N+](=O)[O-])c2c(Br)cc(Br)cc21 | > 100 | 25 (≈ 54.6 µM) | > 100 | – | – | – | – | – | – | – | – | – | – | – | – | – | –
CCOC(=O)CC[C@H](NSc1ccccc1[N+](=O)[O-])C(=O)OCC | > 100 | 25 (≈ 70.1 µM) | 25 (≈ 70.1 µM) | – | – | – | – | – | – | – | – | – | – | – | – | – | –
O=C1C(=O)N(Sc2ccccc2)c2ccccc21 | > 100 | 50 (≈ 196 µM) | 25 (≈ 97.9 µM) | – | – | – | – | – | – | – | – | – | – | – | – | – | –
COC(=O)c1ccccc1SN1C(=O)C(=O)c2cccc(Cl)c21 | > 100 | 12.5 (≈ 35.9 µM) | > 100 | – | – | – | – | – | – | – | – | – | – | – | – | – | –
O=C1C(=O)N(Sc2ccccc2[N+](=O)[O-])c2c(Cl)cccc21 | > 100 | 6.25 (≈ 18.7 µM) | > 100 | > 100 | 12.5 (≈ 37.3 µM) | > 100 | 12.5 (≈ 37.3 µM) | > 100 | 12.5 (≈ 37.3 µM) | > 100 | 6.25 (≈ 18.7 µM) | > 100 | 6.25 (≈ 18.7 µM) | > 100 | 12.5 (≈ 37.3 µM) | > 100 | 6.25 (≈ 18.7 µM)
Cc1ccc(SN[C@@H](Cc2c[nH]c3ccccc23)C(=O)OC(C)C)cc1 | > 100 | > 100 | 25 (≈ 67.8 µM) | – | – | – | – | – | – | – | – | – | – | – | – | – | –
CCOC(=O)c1ccccc1SN1C(=O)C(=O)c2cc(Br)cc(Br)c21 | > 100 | 25 (≈ 51.5 µM) | > 100 | – | – | – | – | – | – | – | – | – | – | – | – | – | –
CC(C)OC(=O)CC[C@H](NSc1ccc([N+](=O)[O-])cc1[N+](=O)[O-])C(=O)OC(C)C | > 100 | > 100 | 25 (≈ 58.2 µM) | – | – | – | – | – | – | – | – | – | – | – | – | – | –
CCOC(=O)[C@H](Cc1c[nH]c2ccccc12)NSc1ccc([N+](=O)[O-])cc1[N+](=O)[O-] | > 100 | > 100 | 25 (≈ 58.1 µM) | – | – | – | – | – | – | – | – | – | – | – | – | – | –
